“And” between values parts separate entries of the source, which are not always exact repeats. Equal values may be shown once.
Tested on: thromboxane analog U46619 induced PAH in minipigs
Experiment: Haemodynamics (PAP, BP) in the anesthetized thromboxane challenged PAH minipig after inhaled (nebulized) application (C-2.1)
Assay type: in vivo, Göttingen minipig
Details: for BP % change vs. baseline / PAP % change vs. baseline / PAP % changes vs prevalue, mean: 100 μg/kg nominal dose; for BP % change vs. baseline / PAP % change vs. baseline: individual animals; for PAP % changes vs prevalue, mean: n = 3; for % changes in BP vs baseline / % changes in PAP vs baseline: inhaled 30 μg/kg
How it was run: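 Anesthetized, ventilated Göttingen minipigs (2-6 kg) given continuous infusion (0.3-0.75 μg/kg/min) to raise mean PAP above 25 mmHg, dosing starting after a 30 min plateau. Compound in 1% DMSO/0.2% citric acid, pH 8, nebulized via Aeroneb Pro into the inspiratory arm (~7 min; stock 300 μg/kg). PAP by Swan-Ganz catheter, BP via carotid catheter.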

O=C(O)c1ccc(CCN(CCc2ccccc2OCc2ccc(-c3ccc(C(F)(F)F)cc3)cc2Cl)[C@H]2CCCc3nc(C(=O)O)ccc32)cc1 [comparative example 11, (5S)-5-{[2-(4-carboxyphenyl)ethyl][2-(2-{[3-chloro-4′-(trifluoromethyl)[biphenyl]-4-yl]methoxy}phenyl)ethyl]amino}-5,6,7,8-tetrahydroquinoline-2-carboxylic acid]
BP % change vs. baseline (inhaled, time 190 min): 98.8% and 91.2% and 96.3%
PAP % change vs. baseline (inhaled, time 190 min): 77.0% and 61.7% and 68.1%
PAP % changes vs prevalue, mean (inhaled, time 190 min): −30.5%
BP % change vs. baseline (inhaled, time 200 min): 99.9% and 90.4% and 98.2%
PAP % change vs. baseline (inhaled, time 200 min): 77.0% and 62.5% and 68.2%
PAP % changes vs prevalue, mean (inhaled, time 200 min): −30.9%
BP % change vs. baseline (inhaled, time 210 min): 98.8% and 90.4% and 97.3%
PAP % change vs. baseline (inhaled, time 210 min): 76.5% and 62.0% and 67.9%
PAP % changes vs prevalue, mean (inhaled, time 210 min): −30.6%
BP % change vs. baseline (inhaled, time 220 min): 101.0% and 90.4% and 97.3%
PAP % change vs. baseline (inhaled, time 220 min): 77.2% and 61.2% and 68.1%
PAP % changes vs prevalue, mean (inhaled, time 220 min): −31.6%
BP % change vs. baseline (inhaled, time 230 min): 99.9% and 90.4% and 96.3%
PAP % change vs. baseline (inhaled, time 230 min): 76.3% and 61.2% and 67.7%
PAP % changes vs prevalue, mean (inhaled, time 230 min): −31.2%
BP % change vs. baseline (inhaled, time 240 min): 98.8% and 89.5% and 95.4%
PAP % change vs. baseline (inhaled, time 240 min): 76.5% and 62.5% and 67.8%
PAP % changes vs prevalue, mean (inhaled, time 240 min): −31.0%
BP % change vs. baseline (inhaled, time 250 min): 98.8% and 89.5% and 95.4%
PAP % change vs. baseline (inhaled, time 250 min): 77.6% and 63.0% and 69.1%
BP % change vs. baseline (inhaled, time 260 min): 97.7% and 87.7% and 95.4%
PAP % change vs. baseline (inhaled, time 260 min): 77.4% and 62.0% and 67.4%
BP % change vs. baseline (inhaled, time 270 min): 96.6% and 86.8% and 99.2%
PAP % change vs. baseline (inhaled, time 270 min): 77.5% and 61.5% and 67.9%
BP % change vs. baseline (inhaled, time 280 min): 96.6% and 86.8% and 96.3%
PAP % change vs. baseline (inhaled, time 280 min): 77.5% and 63.0% and 68.1%
BP % change vs. baseline (inhaled, time 290 min): 97.7% and 86.8% and 94.4%
PAP % change vs. baseline (inhaled, time 290 min): 77.3% and 62.5% and 67.8%
BP % change vs. baseline (inhaled, time 300 min): 96.6% and 85.1% and 93.4%
PAP % change vs. baseline (inhaled, time 300 min): 78.1% and 63.0% and 67.3%
BP % change vs. baseline (inhaled, time 310 min): 95.5% and 83.3% and 93.4%
PAP % change vs. baseline (inhaled, time 310 min): 76.7% and 60.5% and 68.1%
BP % change vs. baseline (inhaled, time 320 min): 95.5% and 81.6% and 92.5%
PAP % change vs. baseline (inhaled, time 320 min): 75.6% and 63.2% and 67.7%
BP % change vs. baseline (inhaled, time 330 min): 95.5% and 79.8% and 92.5%
PAP % change vs. baseline (inhaled, time 330 min): 76.5% and 63.0% and 67.6%
duration of action compared to Ventavis (PAH minipig model, inhaled): more than 6 times
time of maximum effect on PAP (after inhaled application (nebulization), comparative example 11 30 μg/kg, Cinaciguat 3 and 10 μg/kg, Riociguat 100 μg/kg, comparative example 3 30 μg/kg): around 60 min
% changes in BP vs baseline (0 min vs. start inhalation): 99%
% changes in PAP vs baseline (0 min vs. start inhalation): 100% and 99%
% changes in BP vs baseline (10 min vs. start inhalation): 99% and 100%
% changes in PAP vs baseline (10 min vs. start inhalation): 102% and 99%
% changes in BP vs baseline (20 min vs. start inhalation): 96% and 98%
% changes in PAP vs baseline (20 min vs. start inhalation): 101% and 97%
% changes in BP vs baseline (30 min vs. start inhalation): 94% and 95%
% changes in PAP vs baseline (30 min vs. start inhalation): 101% and 97%
% changes in BP vs baseline (40 min vs. start inhalation): 91%
% changes in PAP vs baseline (40 min vs. start inhalation): 100% and 97%
% changes in BP vs baseline (50 min vs. start inhalation): 89% and 90%
% changes in PAP vs baseline (50 min vs. start inhalation): 102% and 96%
% changes in BP vs baseline (60 min vs. start inhalation): 86% and 88%
% changes in PAP vs baseline (60 min vs. start inhalation): 101% and 96%
% changes in BP vs baseline (70 min vs. start inhalation): 86% and 85%
% changes in PAP vs baseline (70 min vs. start inhalation): 103% and 95%
% changes in BP vs baseline (80 min vs. start inhalation): 85% and 86%
% changes in PAP vs baseline (80 min vs. start inhalation): 101% and 94%
% changes in BP vs baseline (90 min vs. start inhalation): 85%
% changes in PAP vs baseline (90 min vs. start inhalation): 102% and 94%
% changes in BP vs baseline (100 min vs. start inhalation): 85% and 84%
% changes in PAP vs baseline (100 min vs. start inhalation): 103% and 92%
% changes in BP vs baseline (110 min vs. start inhalation): 84%
% changes in PAP vs baseline (110 min vs. start inhalation): 102% and 94%
% changes in BP vs baseline (120 min vs. start inhalation): 85% and 84%
% changes in PAP vs baseline (120 min vs. start inhalation): 101% and 92%
% changes in BP vs baseline (130 min vs. start inhalation): 85%
% changes in PAP vs baseline (130 min vs. start inhalation): 102% and 95%
% changes in BP vs baseline (140 min vs. start inhalation): 85%
% changes in PAP vs baseline (140 min vs. start inhalation): 101% and 95%
% changes in BP vs baseline (150 min vs. start inhalation): 84%
% changes in PAP vs baseline (150 min vs. start inhalation): 100% and 92%
% changes in BP vs baseline (160 min vs. start inhalation): 85% and 84%
% changes in PAP vs baseline (160 min vs. start inhalation): 100% and 91%
% changes in BP vs baseline (170 min vs. start inhalation): 86% and 85%
% changes in PAP vs baseline (170 min vs. start inhalation): 101% and 91%
% changes in BP vs baseline (180 min vs. start inhalation): 86%
% changes in PAP vs baseline (180 min vs. start inhalation): 101% and 91%
% changes in BP vs baseline (190 min vs. start inhalation): 86% and 84%
% changes in PAP vs baseline (190 min vs. start inhalation): 101% and 91%
% changes in BP vs baseline (200 min vs. start inhalation): 87% and 83%
% changes in PAP vs baseline (200 min vs. start inhalation): 101% and 90%
% changes in BP vs baseline (210 min vs. start inhalation): 88% and 84%
% changes in PAP vs baseline (210 min vs. start inhalation): 101% and 91%
% changes in BP vs baseline (220 min vs. start inhalation): 87%
% changes in PAP vs baseline (220 min vs. start inhalation): 99% and 92%
% changes in BP vs baseline (230 min vs. start inhalation): 89% and 86%
% changes in PAP vs baseline (230 min vs. start inhalation): 102% and 91%
% changes in BP vs baseline (240 min vs. start inhalation): 88% and 85%
% changes in PAP vs baseline (240 min vs. start inhalation): 99% and 92%
% changes in BP vs baseline (−5 min vs. start inhalation): 101% and 96%
% changes in PAP vs baseline (−5 min vs. start inhalation): 99%
effect on systemic BP (inhaled, 30 μg/kg): did not show any decrease on systemic BP
lung selectivity (inhaled, nominal dose of 100 μg/kg): good lung selectivity
duration of action (inhaled, Ventavis 10 μg/kg nominal dose, comparative example 11 10, 30 and 100 μg/kg nominal dose, 240 min observation interval): ≥ 240 min

Source: patent publication US12138256B2, “Treatment of cardiopulmonary disorders” (Bayer Aktiengesellschaft, priority 2021, dated 2024)
